PubChem BioAssay AID1259408 (Genetic Toxicology Data Bank (GENE-TOX), 2018)
The source made the active and inactive calls. The rule behind the calls is not given here.

Tested on: GENE-TOX genotoxicity assays, various organisms and cells
Test: GENE-TOX mutagenicity studies
Conditions: for call: Assay Type: In vivo carcinogenicity studies
Source text: GENE-TOX provides genetic toxicology (mutagenicity) test data from expert peer review of open scientific literature for more than 3,000 chemicals from the United States Environmental Protection Agency (EPA). GENE-TOX was established to select assay systems for evaluation, review data in the scientific literature, and recommend proper testing protocols and evaluation procedures for these systems.
GENE-TOX covers the years 1991 - 1998. It is no longer updated.
This is an archive assay for GENE-TOX mutagenicity studies.

[1] = Species/Cell Type: Salmonella typhimurium (one or more of the five standard strains: TA98, TA100, TA1535, TA1537, and TA1538), Assay Type: Histidine reverse gene mutation, Ames assay, Assay Code: SAL-, Evaluation Type: Evaluation A (Pre-1980)
[2] = Species/Cell Type: Human, Assay Type: Sister-chromatid exchange (SCE) in vitro, Assay Code: SC1+, Evaluation Type: Evaluation B (Post-1980)
[3] = Species/Cell Type: Nonhuman, Assay Code: CCG+, Evaluation Type: Evaluation A (Pre-1980)
[4] = Species/Cell Type: Salmonella typhimurium (one or more of the five standard strains: TA98, TA100, TA1535, TA1537, and TA1538), Assay Type: Histidine reverse gene mutation, Ames assay, Assay Code: SAL+*, Activation: With metabolic activation, Evaluation Type: Evaluation A (Pre-1980)
[5] = Species/Cell Type: Human diploid fibroblasts, Assay Type: Unscheduled DNA synthesis (UDS) in vitro, DNA effects, Assay Code: UDHT, Evaluation Type: Evaluation A (Pre-1980)
[6] = Species/Cell Type: Mammalian polychromatic erythrocytes, Assay Type: Micronucleus test, chromosome aberrations, Assay Code: MNTT, Evaluation Type: Evaluation B (Post-1980)
[7] = Species/Cell Type: Mouse, Sex: Male, Assay Type: Sperm morphology, Assay Code: SPI-, Evaluation Type: Evaluation A (Pre-1980)
[8] = Species/Cell Type: Salmonella typhimurium (one or more of the five standard strains: TA98, TA100, TA1535, TA1537, and TA1538), Assay Type: Histidine reverse gene mutation, Ames assay, Assay Code: SAL+, Evaluation Type: Evaluation A (Pre-1980)
[9] = Species/Cell Type: Drosophila melanogaster, Assay Type: Sex-linked recessive lethal gene mutation, Assay Code: SRL+, Evaluation Type: Evaluation A (Pre-1980)
[10] = Species/Cell Type: Saccharomyces cerevisiae, Assay Type: Mitotic recombination or gene conversion, Assay Code: YEC+, Evaluation Type: Evaluation A (Pre-1980)
[11] = Species/Cell Type: Bacillus subtilis (H17 vs M45), Assay Type: Rec-assay, spot test, DNA effects (bacterial DNA repair), Assay Code: REWT, Evaluation Type: Evaluation A (Pre-1980)
[12] = Species/Cell Type: Escherichia coli polA (W3119 vs P3478), Assay Type: Rec-assay, DNA effects (bacterial DNA repair), Assay Code: RE1T, Evaluation Type: Evaluation A (Pre-1980)
[13] = Species/Cell Type: Nonhuman, Assay Type: Sister-chromatid exchange (SCE) in vivo, Assay Code: SC3T, Evaluation Type: Evaluation B (Post-1980)
[14] = Species/Cell Type: Saccharomyces cerevisiae, Assay Type: Mitotic recombination or gene conversion, Assay Code: YEH+, Evaluation Type: Evaluation A (Pre-1980)
[15] = Species/Cell Type: Salmonella typhimurium (one or more of the five standard strains: TA98, TA100, TA1535, TA1537, and TA1538), Assay Type: Histidine reverse gene mutation, Ames assay, Assay Code: SALT, Evaluation Type: Evaluation A (Pre-1980)

## CCCCO
Species/Cell Type: Nonhuman, Assay Type: Sister-chromatid exchange (SCE) in vitro, Assay Code: SC2-, Evaluation Type: Evaluation A (Pre-1980)
  mutagenic call: inactive; negative
[1]
  mutagenic call: inactive; negative

## CCOC(=O)c1cc2cc3ccoc3cc2oc1=O
[2]
  mutagenic call: active; positive

## ONc1ccccc1
[2]
  mutagenic call: active; positive

## Cc1c(N)nc(C)c2c1[nH]c1ccccc12
Species/Cell Type: Human lymphocytes, Assay Type: Sister-chromatid exchange (SCE) in vitro, Assay Code: SCL+D, Dose Response: With dose response, Evaluation Type: Evaluation B (Post-1980)
  mutagenic call: active; positive
Species/Cell Type: Human, Assay Type: Sister-chromatid exchange (SCE) in vitro, Assay Code: SC1+D, Dose Response: With dose response, Evaluation Type: Evaluation B (Post-1980)
  mutagenic call: active; positive
[3]
  call: active; positive
[4]
  mutagenic call: active; positive
Species/Cell Type: Syrian hamster embryo (SHE) cells, Assay Type: Cell transformation, clonal assay, Assay Code: CTC+, Evaluation Type: Evaluation A (Pre-1980)
  mutagenic call: active; positive

## COC(=O)Nc1nc2ccc(C(=O)c3ccccc3)cc2[nH]1
Species/Cell Type: Salmonella typhimurium, Assay Type: Forward and reverse gene mutation, body fluid assay, Assay Code: BFU+, Evaluation Type: Evaluation A (Pre-1980)
  mutagenic call: active; positive
Species/Cell Type: Salmonella typhimurium, Assay Type: Forward and reverse gene mutation, host-mediated assay, Assay Code: HMA+, Evaluation Type: Evaluation A (Pre-1980)
  mutagenic call: active; positive

## CC(C)NCC(O)c1ccc2ccccc2c1 (stereo not given)
[5]
  mutagenic call: no conclusion
[6]
  mutagenic call: no conclusion
[7]
  mutagenic call: inactive; negative

## CCN(CC)CC[NH+]([O-])c1ccc(C)c2sc3cc(Cl)ccc3c(=O)c12 (stereo not given)
[4]
  mutagenic call: active; positive

## COC(=O)CN(CC(=O)OC)C1C[C@H]1N(CC(=O)OC)CC(=O)OC (stereo not given in full)
Species/Cell Type: Chinese hamster lung (V79) cells, Assay Type: Forward gene mutation at the HPRT or ouabain locus, Assay Code: V79+, Evaluation Type: Evaluation A (Pre-1980)
  mutagenic call: active; positive

## Cc1cc(O)c2c(c1O)C(=O)c1cc(O)cc(O)c1C2=O
[8]
  mutagenic call: active; positive

## OC[C@@H](O)[C@@H](O)[C@H](O)[C@@H](O)CO
Species/Cell Type: Drosophila melanogaster, Assay Type: Aneuploidy, whole sex chromosome loss, chromosome aberrations, Assay Code: DAC-M, Evaluation Type: Evaluation A (Pre-1980)
  mutagenic call: inactive; negative
Species/Cell Type: Drosophila melanogaster, Assay Type: Sex-linked recessive lethal gene mutation, Assay Code: SRLT, Evaluation Type: Evaluation A (Pre-1980)
  mutagenic call: no conclusion
Species/Cell Type: Rodents, Sex: Male, Assay Type: Dominant lethal test, Assay Code: DLT-, Evaluation Type: Evaluation A (Pre-1980)
  mutagenic call: inactive; negative

## NS(=O)(=O)c1ccc(C(=O)O)cc1
[6]
  mutagenic call: no conclusion

## ClCCBr
Species/Cell Type: Chinese hamster ovary (CHO) cells, Assay Type: Forward gene mutation at the HPRT locus, Assay Code: CHO+, Evaluation Type: Evaluation B (Post-1980)
  mutagenic call: active; positive
Species/Cell Type: Escherichia coli polA (W3119 vs P3478), Assay Type: Rec-assay, DNA effects (bacterial DNA repair), Assay Code: RE1+, Evaluation Type: Evaluation A (Pre-1980)
  mutagenic call: active; positive

## CC1CCN(N=O)CC1
Species/Cell Type: Drosophila melanogaster, Assay Type: Aneuploidy, partial sex chromosome loss, chromosome aberrations, Assay Code: DAPT, Evaluation Type: Evaluation A (Pre-1980)
  mutagenic call: no conclusion
Species/Cell Type: Drosophila melanogaster, Assay Type: Aneuploidy, whole sex chromosome loss, chromosome aberrations, Assay Code: DACT, Evaluation Type: Evaluation A (Pre-1980)
  mutagenic call: no conclusion
[9]
  mutagenic call: active; positive
Species/Cell Type: Saccharomyces cerevisiae, Assay Type: Forward gene mutation, Assay Code: YEF+*, Activation: With metabolic activation, Evaluation Type: Evaluation A (Pre-1980)
  mutagenic call: active; positive
[4]
  mutagenic call: active; positive

## C#CC(OC(=O)NC1CCCCC1)(c1ccccc1)c1ccccc1
[5]
  mutagenic call: no conclusion
[8]
  mutagenic call: active; positive

## Cc1ccc(NC(=O)N(CCCl)N=O)cc1NC(=O)N(CCCl)N=O
[10]
  mutagenic call: active; positive

## COP(=O)(NC(C)=O)SC (stereo not given)
[11]
  mutagenic call: no conclusion
Species/Cell Type: Drosophila melanogaster, Assay Type: Sex-linked recessive lethal gene mutation, Assay Code: SRL-, Evaluation Type: Evaluation A (Pre-1980)
  mutagenic call: inactive; negative
Species/Cell Type: Escherichia coli WP2 UVRA, Assay Type: Tryptophan reverse gene mutation, Assay Code: WPU-*, Activation: With metabolic activation, Evaluation Type: Evaluation A (Pre-1980)
  mutagenic call: inactive; negative
[12]
  mutagenic call: no conclusion
Species/Cell Type: Human diploid fibroblasts, Assay Type: Unscheduled DNA synthesis (UDS) in vitro, DNA effects, Assay Code: UDH-, Evaluation Type: Evaluation A (Pre-1980)
  mutagenic call: inactive; negative
[6]
  mutagenic call: no conclusion
Species/Cell Type: Neurospora crassa, Assay Type: Aneuploidy, chromosome aberrations, Assay Code: NEN-, Evaluation Type: Evaluation A (Pre-1980)
  mutagenic call: inactive; negative
[13]
  mutagenic call: no conclusion
[14]
  mutagenic call: active; positive
[1]
  mutagenic call: inactive; negative

## CCCN(CCCCO)N=O
[4]
  mutagenic call: active; positive

## C[C@]12CCC(=O)C=C1CC[C@@H]1[C@@H]2CC[C@@]2(C)[C@H]1CC[C@]2(C)O
Species/Cell Type: Human, Sex: Male, Assay Type: Sperm morphology, Assay Code: SPH-, Evaluation Type: Evaluation A (Pre-1980)
  mutagenic call: inactive; negative

## CN=C=O
Species/Cell Type: Mammalian polychromatic erythrocytes, Assay Type: Micronucleus test, chromosome aberrations, Assay Code: MNT+U, Dose Response: Unconfirmed positive response, Evaluation Type: Evaluation B (Post-1980)
  mutagenic call: active; positive

## CCCCCN(CCCC(=O)O)N=O
[15]
  mutagenic call: no conclusion

## OCNc1nc(NCO)nc(NCO)n1
[9]
  mutagenic call: active; positive

## O=C(OOC(=O)c1ccccc1)c1ccccc1
[12]
  mutagenic call: no conclusion

## Cc1cc(-c2ccc(N)c(C)c2)ccc1N
Species/Cell Type: Fischer rat embryo (RLV/1706) cells, Assay Type: Cell transformation, viral enhanced, Assay Code: CTR+, Evaluation Type: Evaluation A (Pre-1980)
  mutagenic call: active; positive
[5]
  mutagenic call: no conclusion
Species/Cell Type: Mammalian polychromatic erythrocytes, Assay Type: Micronucleus test, chromosome aberrations, Assay Code: MNT+, Evaluation Type: Evaluation A (Pre-1980)
  mutagenic call: active; positive
[3]
  call: active; positive
Species/Cell Type: Nonhuman, Assay Type: Sister-chromatid exchange (SCE) in vitro, Assay Code: SC2+D, Dose Response: With dose response, Evaluation Type: Evaluation B (Post-1980)
  mutagenic call: active; positive
[4]
  mutagenic call: active; positive

## O=C(COc1ccc(Br)cc1CN1CCCCC1)N/N=C/c1ccccc1O
Species/Cell Type: Saccharomyces cerevisiae, Assay Type: Reverse gene mutation, Assay Code: YERT, Evaluation Type: Evaluation A (Pre-1980)
  mutagenic call: no conclusion

## CC1(C)N=C(N)N=C(N)N1OCCCOc1cc(Cl)c(Cl)cc1Cl
[15]
  mutagenic call: no conclusion

## O=C1c2ccccc2C(=O)c2c1ccc(O)c2O
Species/Cell Type: Allium cepa, Assay Type: Chromosome aberrations, Assay Code: ALC+, Evaluation Type: Evaluation A (Pre-1980)
  mutagenic call: active; positive
[11]
  mutagenic call: no conclusion

## Cc1cc(=O)n(-c2ccccc2)n1C
[1]
  mutagenic call: inactive; negative

## FC(F)(F)C(Cl)Br (stereo not given)
Species/Cell Type: Chinese hamster lung (V79) cells, Assay Type: Forward gene mutation at the HPRT or ouabain locus, Assay Code: V79-, Evaluation Type: Evaluation A (Pre-1980)
  mutagenic call: inactive; negative
[9]
  mutagenic call: active; positive
Species/Cell Type: Human lymphocytes, Assay Type: Sister-chromatid exchange (SCE) in vivo, Assay Code: SCY+, Evaluation Type: Evaluation B (Post-1980)
  mutagenic call: active; positive
[7]
  mutagenic call: inactive; negative
Species/Cell Type: Nonhuman, Assay Code: CCG-L, Evaluation Type: Evaluation A (Pre-1980)
  call: inactive; negative
Species/Cell Type: Nonhuman, Assay Type: Sister-chromatid exchange (SCE) in vitro, Assay Code: SC2T, Evaluation Type: Evaluation B (Post-1980)
  mutagenic call: no conclusion
[13]
  mutagenic call: no conclusion
[10]
  mutagenic call: active; positive
[14]
  mutagenic call: active; positive
Species/Cell Type: Saccharomyces cerevisiae, Assay Type: Reverse gene mutation, Assay Code: YER+, Evaluation Type: Evaluation A (Pre-1980)
  mutagenic call: active; positive
Species/Cell Type: Vicia faba, Assay Type: Chromosome aberrations, Assay Code: VIC+D, Dose Response: With dose response, Evaluation Type: Evaluation A (Pre-1980)
  mutagenic call: active; positive

## Clc1ccc(C2CO2)cc1 (stereo not given)
[15]
  mutagenic call: no conclusion
